Results published in US10882860B2, “Treatment of osteoarthritis” (Samumed, LLC, priority 2015, dated 2021).
Like-named read-outs stand apart in the source and are kept apart here.

Legend:
[1] = Dog pharmacokinetics after IA injection (plasma, cartilage, bone, synovial fluid); type: in vivo, beagle dogs; settings: for % Recovered / Compound of Formula (I) Concentration, Bone / Compound of Formula (I) Concentration, Cartilage / Total Amount Recovered / concentration at 45 day / concentration at 91 day / concentration at 179 day: dogs, IA suspension
Method: In rats and dogs, the pharmacokinetic profile, safety profile, tissue distribution and cartilage regeneration following a single intra-articular (IA) injection of the compound of Formula (I) in the plasma and the knee joint (cartilage and bone) was determined. The compound of Formula (I) (Form 1) was formulated as a suspension composition in 0.5% CMC/0.05% Polysorbate 80 in PBS.
A 350 μL suspension of the compound of Formula (I) (Form 1), formulated as described above, and corresponding to 3 and 30 μg/knee, was injected intra-articularly (IA) into the right and left knees of twelve (12) naïve male beagle dogs. On Day 1, blood was collected at 15 minutes immediately after IA injection and on Days 45, 91 and 179, dogs were sacrificed and blood samples and the knee joints were collected. Plasma and tissue concentrations (bone, cartilage and synovial fluid) were determined using the HPLC-MS/MS bioanalytical method with a dynamic range of […] in plasma or 5.00 to […] in tissue.

[2] = system: moderate-to-severe symptomatic knee OA subjects; test: Phase 1 clinical study: efficacy (WOMAC, Physician Global Assessment, strict OARSI responders); type: in vivo, human; settings: for decrease in median WOMAC total score from baseline: FIG. 24B; for decrease in mean WOMAC total score [0-96] from baseline: FIG. 24A
Excerpt: The study was a first-in-human, multicenter, 24-week, placebo-controlled, single-dose, dose-escalation safety study of a Wnt pathway inhibitor in subjects suffering from moderate to severe symptomatic knee OA. The sample size was 20 subjects (randomized 4:1, 16 active: 4 placebo) per dosing cohort. Inclusion criteria included: Age, 50-75 years; Western Ontario and McMaster Universities Arthritis Index (WOMAC) Total score, 36-72 (out of 96); Kellgren-Lawrence grade, 2 or 3; and a willingness to omit pain medication for 24 hours prior to pain assessments. Exclusion criteria included: BMI>40; and treatment with IA steroids within 2 months or HA derivatives within 6 months prior to injection. A full list of the inclusion and exclusion criteria for this study can be found on clinicaltrials.gov (NCT02095548).
The dosing sequence included suspension compositions of either 0.03 mg, 0.07 mg, or 0.23 mg of the compound of Formula (I) (Form 1) per 2 mL injection in a vehicle containing 0.5% carboxymethylcellulose sodium and 0.05% polysorbate 80 in pH 7.4 phosphate buffered saline. The placebo contained only the diluent of 0.5% carboxymethylcellulose sodium and 0.05% polysorbate 80 in pH 7.4 phosphate buffered saline. The subjects were given a single, intra-articular injection in the target knee on Treatment Day 1 and participated in a follow-up period of 24 weeks.
Safety, pharmacokinetics (PK), biomarker, and efficacy data were collected at baseline and during the 24-week follow-up period. Safety data included adverse events (AEs), concomitant medications, clinical laboratory sampling, medical history, vital signs, ECGs, hip bone density (DXA) analysis, qCT of the target knee, and evaluation of bone edema via MM. For PK data, samples were collected 0, 4, and 24 hours post dose, and at Weeks 4 and 12. Biomarker data included data for procollagen type 1 N-propeptide (P1NP), beta C-terminal telopeptide of type 1 collagen (βCTX), and cartilage oligomeric matrix protein (COMP). Efficacy data included measurements of WOMAC Total score, WOMAC Function and Pain subscores, pain VAS, Physician Global Assessment of Disease Activity, MM, and radiographs. Efficacy assessments were used to determine the percentage of OMERACT-OARSI “strict” responders. Exploratory analyses of efficacy outcomes were conducted using a baseline-adjusted repeated measures analysis of covariance (ANCOVA) in the Intention-to-Treat (ITT) population. The sponsor was unblinded after Week 12 for each cohort; site investigators remained blinded. All AEs reported in this study were […]. Investigator opinion regarding whether AEs were related to the compound of Formula (I) was also collected for informational purposes.
Strict responders were classified by having either a WOMAC Function subscore improvement of ≥50% with a corresponding Function score improvement of ≥20 points (scaled to [0-100]), or a WOMAC Pain subscore improvement of ≥50% with a corresponding Pain score improvement of ≥20 points (scaled to [0-100]).

[3] = dog, up to 30 μg/knee, 179 days

Q: What does the source list for CC(C)CC(=O)Nc1cncc(-c2ccc3[nH]nc(-c4nc5c(-c6cccc(F)c6)cncc5[nH]4)c3c2)c1 [compound of Formula (I)]?
A: % of administered dose recovered ([1]; dog, 3 μg/knee, Day 45): 5.1%; total amount recovered from cartilage and bone tissues from the tibia ([1]; dog, 3 μg/knee, Day 45): 152 ng; % of administered dose recovered ([1]; dog, 3 μg/knee, Day 91): 0.55%; total amount recovered from cartilage and bone tissues from the tibia ([1]; dog, 3 μg/knee, Day 91): 16.6 ng; % of administered dose recovered ([1]; dog, 3 μg/knee, Day 179): 2.5%; total amount recovered from cartilage and bone tissues from the tibia ([1]; dog, 3 μg/knee, Day 179): 79 ng; % of administered dose recovered ([1]; dog, 30 μg/knee, Day 45): 16.8%; total amount recovered from cartilage and bone tissues from the tibia ([1]; dog, 30 μg/knee, Day 45): 5060 ng; % of administered dose recovered ([1]; dog, 30 μg/knee, Day 91): 7.25%; total amount recovered from cartilage and bone tissues from the tibia ([1]; dog, 30 μg/knee, Day 91): 2250 ng; % of administered dose recovered ([1]; dog, 30 μg/knee, Day 179): 7.03%; total amount recovered from cartilage and bone tissues from the tibia ([1]; dog, 30 μg/knee, Day 179): 2110 ng; systemic exposure ([1]; dog, up to 30 μg/knee, 15 minutes post-dose): no measurable systemic exposure; adverse effects from intra-articular administration [1, 3]: no adverse effects; mortality [1, 3]: no mortality; % Recovered ([1]; 3 μg/knee, Day 45): 5.1%; Compound of Formula (I) Concentration, Bone ([1]; 3 μg/knee, Day 45): [22] nM; Compound of Formula (I) Concentration, Cartilage ([1]; 3 μg/knee, Day 45): [301] nM; Total Amount Recovered ([1]; 3 μg/knee, Day 45): 152 ng; % Recovered ([1]; 3 μg/knee, Day 91): 0.55%; Compound of Formula (I) Concentration, Bone ([1]; 3 μg/knee, Day 91): BQL; Compound of Formula (I) Concentration, Cartilage ([1]; 3 μg/knee, Day 91): [73] nM; Total Amount Recovered ([1]; 3 μg/knee, Day 91): 16.6 ng; % Recovered ([1]; 3 μg/knee, Day 179): 2.6%; Compound of Formula (I) Concentration, Bone ([1]; 3 μg/knee, Day 179): 12.8 ng/g and [25] nM; Compound of Formula (I) Concentration, Cartilage ([1]; 3 μg/knee, Day 179): 63.7 ng/g and [126] nM; Total Amount Recovered ([1]; 3 μg/knee, Day 179): 79.0 ng; % Recovered ([1]; 30 μg/knee, Day 45): 16.9%; Compound of Formula (I) Concentration, Bone ([1]; 30 μg/knee, Day 45): [1160] nM; Compound of Formula (I) Concentration, Cartilage ([1]; 30 μg/knee, Day 45): [8960] nM; Total Amount Recovered ([1]; 30 μg/knee, Day 45): 5057 ng; % Recovered ([1]; 30 μg/knee, Day 91): 7.4%; Compound of Formula (I) Concentration, Bone ([1]; 30 μg/knee, Day 91): [234] nM; Compound of Formula (I) Concentration, Cartilage ([1]; 30 μg/knee, Day 91): [4609] nM; Total Amount Recovered ([1]; 30 μg/knee, Day 91): 2175 ng; % Recovered ([1]; 30 μg/knee, Day 179): 7.0%; Compound of Formula (I) Concentration, Bone ([1]; 30 μg/knee, Day 179): [2289] nM; Compound of Formula (I) Concentration, Cartilage ([1]; 30 μg/knee, Day 179): [228] nM; Total Amount Recovered ([1]; 30 μg/knee, Day 179): 2109 ng; concentration at 45 day ([1]; male, beagle, dog, bone, other: intra-articular, 3 μg/knee, Day 45, read-out: Compound of Formula (I) Concentration, Bone): 11.2 ng/g; concentration at 45 day ([1]; male, beagle, dog, bone, other: intra-articular, 30 μg/knee, Day 45, read-out: Compound of Formula (I) Concentration, Bone): 586 ng/g; concentration at 91 day ([1]; male, beagle, dog, bone, other: intra-articular, 30 μg/knee, Day 91, read-out: Compound of Formula (I) Concentration, Bone): 118 ng/g; concentration at 179 day ([1]; male, beagle, dog, bone, other: intra-articular, 30 μg/knee, Day 179, read-out: Compound of Formula (I) Concentration, Bone): 1160 ng/g; concentration at 45 day ([1]; male, beagle, dog, cartilage, other: intra-articular, 3 μg/knee, Day 45, read-out: Compound of Formula (I) Concentration, Cartilage): 152 ng/g; concentration at 91 day ([1]; male, beagle, dog, cartilage, other: intra-articular, 3 μg/knee, Day 91, read-out: Compound of Formula (I) Concentration, Cartilage): 37 ng/g; concentration at 45 day ([1]; male, beagle, dog, cartilage, other: intra-articular, 30 μg/knee, Day 45, read-out: Compound of Formula (I) Concentration, Cartilage): 4520 ng/g; concentration at 91 day ([1]; male, beagle, dog, cartilage, other: intra-articular, 30 μg/knee, Day 91, read-out: Compound of Formula (I) Concentration, Cartilage): 2330 ng/g; concentration at 179 day ([1]; male, beagle, dog, cartilage, other: intra-articular, 30 μg/knee, Day 179, read-out: Compound of Formula (I) Concentration, Cartilage): 115 ng/g; concentration at 15 min ([1]; male, beagle, plasma, other: intra-articular, dog, 15 min post-dose, 3 or 30 μg/knee, BQL): < 2000 ng/mL; WOMAC function [0-68], Week 12 Actual [Mean (SD)] ([2]; 0.03 mg cohort, N 17): 20.3; WOMAC function [0-68], Week 12 Change from baseline [Mean (SD)] ([2]; 0.03 mg cohort, N 17): −18.4; WOMAC pain [0-20], Week 12 Actual [Mean (SD)] ([2]; 0.03 mg cohort, N 17): 6.3; WOMAC pain [0-20], Week 12 Change from baseline [Mean (SD)] ([2]; 0.03 mg cohort, N 17): −4.4; decrease in median WOMAC total score from baseline ([2]; 0.03 mg cohort): greater than 25; median decrease in physician global assessment from baseline ([2]; 0.03 mg cohort, FIG. 25B): about 48; WOMAC function [0-68], Week 12 Actual [Mean (SD)] ([2]; 0.07 mg cohort, N 16): 18.4; WOMAC function [0-68], Week 12 Change from baseline [Mean (SD)] ([2]; 0.07 mg cohort, N 16): −19.2; WOMAC pain [0-20], Week 12 Actual [Mean (SD)] ([2]; 0.07 mg cohort, N 16): 5.3; WOMAC pain [0-20], Week 12 Change from baseline [Mean (SD)] ([2]; 0.07 mg cohort, N 16): −5.6; decrease in mean WOMAC total score [0-96] from baseline ([2]; 0.07 mg cohort): about 27; decrease in median WOMAC total score from baseline ([2]; 0.07 mg cohort): greater than 25; odds ratio (OR) of strict OARSI response vs placebo ([2]; 0.07 mg cohort, Week 12, P=0.081): 4.2; percentage of strict OARSI responders ([2]; 0.07 mg cohort, Week 12, placebo 42%): 75%; WOMAC function [0-68], Week 12 Actual [Mean (SD)] ([2]; 0.23 mg cohort, N 16): 22.6; WOMAC function [0-68], Week 12 Change from baseline [Mean (SD)] ([2]; 0.23 mg cohort, N 16): −17.8; WOMAC pain [0-20], Week 12 Actual [Mean (SD)] ([2]; 0.23 mg cohort, N 16): 5.8; WOMAC pain [0-20], Week 12 Change from baseline [Mean (SD)] ([2]; 0.23 mg cohort, N 16): −5.7; decrease in mean WOMAC total score [0-96] from baseline ([2]; all cohorts (0.03, 0.07, 0.23 mg)): ≥ 23; decrease in mean physician global assessment score [0-100] from baseline ([2]; all cohorts (0.03, 0.07, 0.23 mg), FIG. 25A): ≥ 30
